Results on two compounds are retold here after paper PMC9232112 (Science Advances, 2022).

Test [1] deals with measles virus polymerase. As to conditions: equivalent measles virus RdRP assay; cited from earlier work.
Test [2] concerns recRSV-mKate. In words: microbe, parasite or virus in culture. Format: cell-based. The settings on record: human respiratory syncytial virus, read-out: EC50, apical RSV shedding.

Each structure is given as a SMILES string.

Regarding `Cn1nc(C(F)(F)F)cc1C(=O)Nc1ccc(S(=O)(=O)N2CCCC[C@H]2CCN2CCOCC2)cc1` [ERDRP-0519], the phosphodiester bond formation result in test [1] was “completely blocks all phosphodiesterbond formation”.
The EC50 is the concentration needed to bring the measured effect to its halfway point. As to `O=c1nc(NO)ccn1[C@@H]1O[C@H](CO)[C@@H](O)[C@H]1O` [NHC, N^4-hydroxycytidine], the EC50 in test [2] turned out to be 50 nM.
